Laboratory results reported in US8618152B2, “Inhibitors of serine proteases, particularly HCV NS3-NS4A proteases” (Vertex Pharmaceuticals Incorporated, priority 2003, dated 2013).
pIC50, pKi: −log10 of the molar value. Where two headings read alike, the source gives them in different places. *1 amine or outer side, *2 acyl side, *3 side chain or, on linkers, in order; H or OH if unused. Where a SMILES comes first, the peptide text is derived from it. [ ]: non-standard residue; d: D form. The star is where a group is joined. Pro(3S-Et) = CC[C@H]1CCN[C@@H]1C(=O)O; Pyrazinecarbonyl = O=C(c1cnccn1)*; X1 = CCCC(N[*:1])C(=O)C(=O)[*:2]; Chg = N[C@H](C(=O)O)C1CCCCC1; Tle = CC(C)(C)[C@H](N)C(=O)O

What was measured:
[1] = tested on: Cells containing hepatitis C virus (HCV) replicon; test: HCV replicon cell assay; assay type: cell-based
Protocol: HCV Replicon Cell Assay Protocol
Cells containing hepatitis C virus (HCV) replicon were maintained in DMEM containing 10% fetal bovine serum (FBS), 0.25 mg per ml of G418, with appropriate supplements (media A).
On day 1, replicon cell monolayer was treated with a trypsin:EDTA mixture, removed, and then media A was diluted into a final concentration of 100,000 cells per ml with. 10,000 cells in 100 ul were plated into each well of a 96-well tissue culture plate, and cultured overnight in a tissue culture incubator at 37° C.
On day 2, compounds (in 100% DMSO) were serially diluted into DMEM containing 2% FBS, 0.5% DMSO, with appropriate supplements (media B). The final concentration of DMSO was maintained at 0.5% throughout the dilution series.
Media on the replicon cell monolayer was removed, and then media B containing various concentrations of compounds was added. Media B without any compound was added to other wells as no compound controls.
Cells were incubated with compound or 0.5% DMSO in media B for 48 hours in a tissue culture incubator at 37° C. At the end of the 48-hour incubation, the media was removed, and the replicon cell monolayer was washed once with PBS and stored at −80° C. prior to RNA extraction.
Culture plates with treated replicon cell monolayers were thawed, and a fixed amount of another RNA virus, such as Bovine Viral Diarrhea Virus (BVDV) was added to cells in each well. RNA extraction reagents (such as reagents from RNeasy kits) were added to the cells immediately to avoid degradation of RNA. Total RNA was extracted according the instruction of manufacturer with modification to improve extraction efficiency and consistency. Finally, total cellular RNA, including HCV replicon RNA, was eluted and stored at −80° C. until further processing.
A Taqman real-time RT-PCR quantification assay was set up with two sets of specific primers and probe. One was for HCV and the other was for BVDV. Total RNA extractants from treated HCV replicon cells was added to the PCR reactions for quantification of both HCV and BVDV RNA in the same PCR well. Experimental failure was flagged and rejected based on the level of BVDV RNA in each well. The level of HCV RNA in each well was calculated according to a standard curve run in the same PCR plate. The percentage of inhibition or decrease of HCV RNA level due to compound treatment was calculated using the DMSO or no compound control as 0% of inhibition. The IC50 (concentration at which 50% inhibition of HCV RNA level is observed) was calculated from the titration curve of any given compound.

[2] = target: HCV NS3-NS4A protease (tNS3 with KK4A) (Hepatitis C virus genotype 1a, UniProt P27958); test: HCV Ki assay (HPLC microbore separation of 5AB substrate and products); assay type: biochemical
Protocol: HPLC Microbore Method for Separation of 5AB Substrate and Products
Substrate: NH2-Glu-Asp-Val-Val-(alpha)Abu-Cys-Ser-Met-Ser-Tyr-COOH
A stock solution of 20 mM 5AB (or concentration of your choice) was made in DMSO w/0.2M DTT. This was stored in aliquots at −20 C.
Buffer: 50 mM HEPES, pH 7.8; 20% glycerol; 100 mM NaCl
Total assay volume was 100 μL
The buffer, KK4A, DTT, and tNS3 were combined; distributed 78 μL each into wells of 96 well plate. This was incubated at 30 C for ˜5-10 min.
2.5 μL of appropriate concentration of test compound was dissolved in DMSO (DMSO only for control) and added to each well. This was incubated at room temperature for 15 min.
Initiated reaction by addition of 20 μL of 250 μM 5AB substrate (25 μM concentration is equivalent or slightly lower than the Km for 5AB).
Incubated for 20 min at 30 C.
Terminated reaction by addition of 25 μL of 10% TFA
Transferred 120 μL aliquots to HPLC vials
Separated SMSY product from substrate and KK4A by the following method:
Microbore Separation Method:
Instrumentation: Agilent 1100
Column thermostated chamber G1316A
Diode array detector G1315A
Solvent A=HPLC grade water+0.1% TFA
Solvent B=HPLC grade acetonitrile+0.1% TFA
Stop time: 17 min Post-run time: 10 min.

[3] = 50% inhibition of HCV RNA level, 48-hour incubation, Taqman real-time RT-PCR, read-out: IC50
[4] = 25 nM tNS3, 25 μM KK4A, 25 μM 5AB substrate, 20 min at 30 C, read-out: Ki

HCV NS3-NS4A protease (tNS3 with KK4A), sequence (P27958 1027-1208): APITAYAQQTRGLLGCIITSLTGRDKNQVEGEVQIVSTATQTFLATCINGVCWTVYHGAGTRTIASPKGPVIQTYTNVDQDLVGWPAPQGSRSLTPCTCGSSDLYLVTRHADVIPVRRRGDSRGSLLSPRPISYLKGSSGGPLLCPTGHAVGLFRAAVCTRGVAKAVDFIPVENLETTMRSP

Row | Compound | pIC50 [1, 3] | pKi [2, 4] | pIC50 ([1]; 48 h) | pKi [2]
1 | CCCC(NC(=O)[C@@H]1[C@@H](CC)CCN1C(=O)[C@@H](NC(=O)[C@@H](NC(=O)c1cnccn1)C1CCCCC1)C(C)(C)C)C(=O)C(=O)NC1CC1 (some centres unmarked) [Compound 39] | 6.00 to 6.30 | > 7.00 |  | 
2 | CCCC(NC(=O)[C@@H]1[C@@H](CC)CCN1C(=O)[C@@H](NC(=O)[C@@H](NC(=O)c1cnccn1)C1CCCCC1)C(C)(C)C)C(=O)C(=O)N[C@@H](Cc1ccccc1)C(=O)O (stereo partly drawn) [Compound 41] (Pyrazinecarbonyl-[Chg][Tle][Pro(3S-Et)][X1]F-OH) |  | < 6.30 | > 6.30 | 
3 | CCCC(NC(=O)[C@@H]1[C@@H](CC)CCN1C(=O)[C@@H](NC(=O)[C@@H](NC(=O)c1cnccn1)C1CCCCC1)C(C)(C)C)C(=O)C(=O)N[C@@H](C)c1ccccc1 (some centres unmarked) [Compound 44] | 6.00 to 6.30 | 6.30 to 7.00 |  | 
4 | CC[C@H]1CCN(C(=O)[C@@H](NC(=O)[C@@H](NC(=O)c2cnccn2)C2CCCCC2)C(C)(C)C)[C@@H]1C(=O)NC(CC(F)F)C(=O)C(=O)NC1CC1 (some centres unmarked) [Compound 52] | > 6.30 | > 7.00 |  | 
5 | CCCC(NC(=O)[C@@H]1[C@@H](C2CCCCC2)CCN1C(=O)[C@@H](NC(=O)[C@@H](NC(=O)c1cnccn1)C1CCCCC1)C(C)C)C(=O)C(=O)NC1CC1 (some centres unmarked) [Compound 54] |  | 6.30 to 7.00 | < 6.00 | 
6 | CCCC(NC(=O)[C@@H]1[C@@H](C2CCCCC2)CCN1C(=O)[C@@H](NC(=O)[C@@H](NC(=O)c1cnccn1)C1CCCCC1)C(C)(C)C)C(=O)C(=O)NC1CC1 (some centres unmarked) [Compound 55] | 6.00 to 6.30 | > 7.00 |  | 
7 | CCCC(NC(=O)[C@@H]1[C@@H](CC)CCN1C(=O)[C@@H](NC(=O)[C@@H](NC(=O)c1cnccn1)C(c1ccccc1)c1ccccc1)C(C)C)C(=O)C(=O)NC1CC1 (some centres unmarked) [Compound 60] | < 6.00 |  |  | 
8 | CCCC(NC(=O)[C@@H]1[C@@H](C2CCCCC2)CCN1C(=O)[C@@H](NC(=O)[C@@H](NC(=O)c1cnccn1)C1CCCCC1)C(C)(C)C)C(=O)C(=O)N[C@@H](C)c1ccccc1 (some centres unmarked) [Compound 62] | 6.00 to 6.30 | > 7.00 |  | 
9 | CCCC(NC(=O)[C@@H]1[C@@H](C2CCCCC2)CCN1C(=O)[C@@H](NC(=O)[C@@H](NC(=O)C1CSC(=O)N1)C1CCCCC1)C(C)(C)C)C(=O)C(=O)N[C@@H](C)c1ccccc1 (some centres unmarked) [Compound 63] | 6.00 to 6.30 |  |  | > 7.00
10 | CCC[C@H](NC(=O)[C@@H]1[C@@H](C(C)C)CCN1C(=O)[C@@H](NC(=O)[C@@H](NC(=O)c1cnccn1)C1CCCCC1)C(C)C)C(=O)C(=O)NC1CC1 [Compound 64] |  | 6.30 to 7.00 | < 6.00 | 
11 | CCC[C@H](NC(=O)[C@@H]1[C@@H](C2CCCCC2)CCN1C(=O)[C@@H](NC(=O)[C@@H](NC(=O)c1cnccn1)C1CCCCC1)C(C)(C)C)C(=O)C(=O)NC1CC1 [Compound 66] | 6.00 to 6.30 | 6.30 to 7.00 |  | 
12 | CCC[C@H](NC(=O)[C@@H]1[C@@H](C2CCCCC2)CCN1C(=O)[C@@H](NC(=O)[C@@H](NC(=O)c1cnccn1)C1CCCCC1)C(C)(C)C)C(=O)C(=O)N[C@@H](C)C1CCCCC1 [Compound 67] | < 6.00 | < 6.30 |  | 
13 | CCC[C@H](NC(=O)[C@@H]1[C@@H](C2CCCCC2)CCN1C(=O)[C@@H](NC(=O)[C@@H](NC(=O)c1ncc[nH]1)C1CCCCC1)C(C)(C)C)C(=O)C(=O)NC1CC1 [Compound 68] | > 6.30 | > 7.00 |  | 
14 | CCC[C@H](NC(=O)[C@@H]1[C@@H](C(C)C)CCN1C(=O)[C@@H](NC(=O)[C@@H](NC(=O)c1ncc[nH]1)C1CCCCC1)C(C)(C)C)C(=O)C(=O)NC1CC1 [Compound 69] | > 6.30 | > 7.00 |  | 
15 | CCC[C@H](NC(=O)[C@@H]1[C@@H](C2CCCCC2)CCN1C(=O)[C@@H](NC(=O)[C@@H](NC(=O)c1cc([N+](=O)[O-])c[nH]1)C1CCCCC1)C(C)(C)C)C(=O)C(=O)NC1CC1 [Compound 71] | < 6.00 | > 7.00 |  | 
16 | CCC[C@H](NC(=O)[C@@H]1[C@@H](C2CCCCC2)CCN1C(=O)[C@@H](NC(=O)[C@@H](NC(=O)c1ccc[nH]1)C1CCCCC1)C(C)(C)C)C(=O)C(=O)NC1CC1 [Compound 72] | 6.00 to 6.30 | > 7.00 |  | 
17 | CCC[C@H](NC(=O)[C@@H]1[C@@H](C(C)(C)C)CCN1C(=O)[C@@H](NC(=O)[C@@H](NC(=O)c1cnccn1)C1CCCCC1)C(C)(C)C)C(=O)C(=O)NC1CC1 [Compound 73] | < 6.00 | 6.30 to 7.00 |  | 
18 | CCC[C@H](NC(=O)[C@@H]1[C@@H](C(CC)CC)CCN1C(=O)[C@@H](NC(=O)[C@@H](NC(=O)c1cnccn1)C1CCCCC1)C(C)(C)C)C(=O)C(=O)NC1CC1 [Compound 74] | < 6.00 | 6.30 to 7.00 |  | 
19 | CCC[C@H](NC(=O)[C@@H]1[C@@H](C2CCCC2)CCN1C(=O)[C@@H](NC(=O)[C@@H](NC(=O)c1cnccn1)C1CCCCC1)C(C)(C)C)C(=O)C(=O)NC1CC1 [Compound 75] | < 6.00 | 6.30 to 7.00 |  | 
20 | CCC[C@H](NC(=O)[C@@H]1[C@@H](CC)[C@@H](C)CN1C(=O)[C@@H](NC(=O)[C@@H](NC(=O)c1cnccn1)C1CCCCC1)C(C)(C)C)C(=O)C(=O)NC1CC1 [Compound 76] | < 6.00 | 6.30 to 7.00 |  | 
21 | CCC[C@H](NC(=O)[C@@H]1[C@@H](Cc2ccccc2)CCN1C(=O)[C@@H](NC(=O)[C@@H](NC(=O)c1cnccn1)C1CCCCC1)C(C)(C)C)C(=O)C(=O)NC1CC1 [Compound 77] | < 6.00 | 6.30 to 7.00 |  | 
